Each structure is given as a SMILES string. Where only a bound is given, the exact number is not on record here.

We go through nine compounds from PMC10384408, “Anticancer Tungstenocenes with a Diverse Set of (O,O–), (O,S–) and (O,N–) Chelates—A Detailed Biological Study Using an Improved Evaluation via 3D Spheroid Models” (Pharmaceutics, 2023).

Series [1] deals with CH1/PA-1 (ovarian teratocarcinoma) cells. In words: MTT cytotoxicity assay, CH1/PA-1 monolayer. In kind it is cell-based, human. Particulars: exposure time 96 h, mean ± SD. Here is the method:
(§1) CH1/PA-1 (ovarian teratocarcinoma), SW480 (colon carcinoma) and A549 (non-small cell lung cancer) cells were maintained as described in the reference. IMR-90 human fetal lung fibroblasts (from the European Collection of Authenticated Cell Cultures, Porton Down, Salisbury, UK) were cultured in Stable Cell^TM DMEM/F12 supplemented with 0.01 mg/mL human recombinant insulin (both purchased from Sigma-Aldrich) and 10% fetal bovine serum (FBS, BioWest, Nuaillé, France). Human colon carcinoma cell lines HCT116 and HT29 (both kindly provided by the Institute of Cancer Research, Department of Medicine I, Medical University of Vienna, Austria) were cultured in McCoy’s 5a medium supplemented with 4 mM L-glutamine (both purchased from Sigma-Aldrich) and 10% FBS. MCF-7 human breast adenocarcinoma cells (kindly provided by M. Ogris, Department of Pharmaceutical Sciences, University of Vienna, Austria) were maintained in DMEM (high glucose) supplemented with 4 mM L-glutamine, 0.1 mg/mL human insulin (all purchased from Sigma-Aldrich) and 10% FBS. All cell lines were grown as monolayers in 75 cm^2 culture flasks (CytoOne, Starlab, Hamburg, Germany) at 37 °C in a humidified atmosphere containing 5% CO2.
Exponentially growing cells were plated into 96-well microculture plates (CytoOne, tissue culture treated, Starlab, Hamburg, Germany) in densities of 1 × 10^3 CH1/PA-1, 2 × 10^3 SW480, 3 × 10^3 A549 and 7 × 10^3 IMR-90 cells per well (each in 100 µL). After a 24 h preincubation, drugs were added in serial dilution to give a final volume of 200 µL/well and exposed for 96 h. At the end of the exposure, the drug solutions were replaced by 100 µL RPMI 1640/MTT mixture (7:1 ratio). MTT (3-(4,5-dimethylthiazol-2-yl)-2,5-diphenyl-2H-tetrazolium bromide), (Acros Organics, Geel, Belgium) solution was prepared in phosphate-buffered saline (5 mg/mL) and mixed with RPMI1640 medium supplemented with 4 mM L-glutamine (both from Sigma-Aldrich) and 10% FBS. After 4 h incubation, the formazan crystals were solubilized in 150 µL of DMSO per well. Absorbance was measured at 550 nm (and at 690 nm as a reference) with a microplate reader (ELx808, BioTek, Winoosky, VT, USA) and Gen5^TM 3.08 software (BioTek). The 50% inhibitory concentrations (IC50) relative to untreated controls were interpolated from concentration-effect curves. At least three biologically and technically independent experiments were performed.

Series [2] can be described thus: Solubility in PBS (1% DMSO). In kind it is physicochemical. As to the method: Stock solutions in DMSO of compounds 1–10 were utilized to determine the solubility in PBS by adding 1 vol% of the stock solution to a suitable amount of PBS. […] UV/Vis data were recorded on a Perkin Elmer Lambda 650 UV/Vis Spectrophotometer with a Peltier element for temperature control.

Series [3] has as its system HT29 multicellular tumor spheroids. In words: Resazurin assay, HT29 3D spheroids. Particulars: 96 h; for IC50: spheroids. The series is classed as cell-based, human. As to the method: as §1
For growing multicellular tumor spheroids, 400 HCT116, 400 HT29 or 800 MCF-7 cells per well were plated into round-bottom ultra-low attachment 96-well plates (Corning, Glendale, AZ, USA) in the media described above and incubated at 37 °C for 96 h. Spheroids were treated with 10 µM of the two most cytotoxic compounds 3 and 4 for another 96 h. The diameters of the spheroids were measured with Cell^F software under a CKX41 Olympus microscope before treatment and in constant daily intervals over the 96 h treatment period. For statistical analysis the t-test with Welsh’s correction was implemented in GraphPad Prism software (Version 6.01).
For the resazurin assay in monolayer cultures, cells were seeded into 96-well microculture plates (CytoOne, tissue culture treated, Starlab, Hamburg, Germany) in densities of 2 × 10^3 HCT116, 2 × 10^3 HT29 and 4 × 10^3 MCF-7 cells per well (each in 100 µL). For tests in 3D cultures, spheroids were grown as described above. After 24 h (for monolayers) or 4 days (for spheroids) the test compounds in the appropriate medium were added in serial dilution to the plates to obtain a total volume of 200 µL/well. Wells without cells, containing medium and resazurin (Alfa Aesar, Thermo Fisher, Kandel, Germany) solution were used as blanks. After 96 h exposure 20 µL of the resazurin solution (440 µM) were added to each well, followed by a 4 h (2D) or 12 h (3D) incubation period. Resorufin fluorescence was quantified at 530 nm (and a reference wavelength of 620 nm) by using a microplate reader (Synergy HT, BioTek) with Gen5^TM 3.10 software (BioTek).

In series [1], `Cc1occc(=S)c1[O-].F[P-](F)(F)(F)(F)F.[W+4].c1cc[cH-]c1.c1cc[cH-]c1` [Compound 2, Bis(η^5-cyclopentadienyl)[2-methyl-3-(oxo-κO)-4-(1H)-pyran-4-thionato-κS]tungsten(IV) hexafluorophosphate] registered an IC50 of 24 ± 3 µM. In addition, the “Solubility in PBS (1% DMSO)” value in series [2] worked out at 250 µg/mL. Moreover, in series [3], the “ratio 3D/2D of IC50 values, HT29” value is reported as greater than 3.8 and the IC50 is greater than 200 µM.
Taken in the same sequence, the figures for `F[P-](F)(F)(F)(F)F.O=c1c([O-])c(-c2ccc(Cl)cc2)oc2ccccc12.[W+4].c1cc[cH-]c1.c1cc[cH-]c1` [Compound 3, Bis(η^5-cyclopentadienyl)[2-(4-chlorophenyl)-3-(oxo-κO)-4(H)-chromen-4-oato-κO]tungsten(IV) hexafluorophosphate] were 2.7 ± 0.4 µM, 30 µg/mL, 5.1 and 86 ± 2 µM.
In series [1], `F[P-](F)(F)(F)(F)F.[O-]c1c(-c2ccc(Cl)cc2)oc2ccccc2c1=S.[W+4].c1cc[cH-]c1.c1cc[cH-]c1` [Compound 4, Bis(η^5-cyclopentadienyl)[2-(4-chlorophenyl)-3-(oxo-κO)-4(H)-chromen-4-thionato-κS]tungsten(IV) hexafluorophosphate] had an IC50 of 1.6 ± 0.5 µM. Besides, the “Solubility in PBS (1% DMSO)” value in series [2] came out at 10 µg/mL. Further, in series [3], the “ratio 3D/2D of IC50 values, HT29” value is given as 5.6 and the IC50 came to 31 ± 6 µM.
As to `F[P-](F)(F)(F)(F)F.O=C([O-])c1ccccn1.[W+4].c1cc[cH-]c1.c1cc[cH-]c1` [Compound 5, Bis(η^5-cyclopentadienyl)[2-(carboxylato-κO)-pyridine-κN]tungsten(IV) hexafluorophosphate], the IC50 in series [1] and in series [3] was greater than 200 µM in each case. Besides, the “Solubility in PBS (1% DMSO)” value in series [2] came to 180 µg/mL.
As to `Cc1c([O-])c(=O)ccn1C.F[P-](F)(F)(F)(F)F.[W+4].c1cc[cH-]c1.c1cc[cH-]c1` [Compound 6, Bis(η^5-cyclopentadienyl)[1,2-dimethyl-3-(oxo-κO)-4-(1H)-pyridonato-κO]tungsten(IV) hexafluorophosphate], the IC50 in series [1] and in series [3] was greater than 200 µM in each case. In addition, the “Solubility in PBS (1% DMSO)” value in series [2] worked out at 1200 µg/mL.
With `Cc1cc(=O)c([O-])co1.F[P-](F)(F)(F)(F)F.[W+4].c1cc[cH-]c1.c1cc[cH-]c1` [Compound 7, Bis(η^5-cyclopentadienyl)[2-methyl-5-(oxo-κO)-4-(1H)-pyran-4-ato-κO] tungsten(IV) hexafluorophosphate], the IC50 in series [1] is 152 ± 16 µM; in series [3], greater than 200 µM. For the same compound, the “Solubility in PBS (1% DMSO)” value in series [2] came to 350 µg/mL.
As to `Cc1cc(=S)c([O-])co1.F[P-](F)(F)(F)(F)F.[W+4].c1cc[cH-]c1.c1cc[cH-]c1` [Compound 8, Bis(η^5-cyclopentadienyl)[2-methyl-5-(oxo-κO)-pyran-4-(1H)-thionato-κS] tungsten(IV) hexafluorophosphate], the IC50 was 93 ± 15 µM in series [1] and greater than 200 µM in series [3]. Besides, the “Solubility in PBS (1% DMSO)” value in series [2] was determined as 410 µg/mL.
As for `CCc1occc(=O)c1[O-].F[P-](F)(F)(F)(F)F.[W+4].c1cc[cH-]c1.c1cc[cH-]c1` [Compound 9, Bis(η^5-cyclopentadienyl)[2-ethyl-3-(oxo-κO)-4-(1H)-pyran-4-ato-κO] tungsten(IV) hexafluorophosphate], the IC50 in series [1] and in series [3] was greater than 200 µM in each case. Further, the “Solubility in PBS (1% DMSO)” value in series [2] is 550 µg/mL.
On to `CCc1occc(=S)c1[O-].F[P-](F)(F)(F)(F)F.[W+4].c1cc[cH-]c1.c1cc[cH-]c1` [Compound 10, Bis(η^5-cyclopentadienyl)[2-ethyl-3-(oxo-κO)-4-(1H)-pyran-4-thionato-κS] tungsten(IV) hexafluorophosphate], for which the IC50 was 21 ± 1 µM in series [1] and greater than 200 µM in series [3]. Also, the “Solubility in PBS (1% DMSO)” value in series [2] turned out to be 320 µg/mL. Also, the “ratio 3D/2D of IC50 values, HT29” value in series [3] is recorded as greater than 3.7.
